# Source: patent US12287344B2, “Fret-based method to measure seeding activity of misfolded protein species in biological samples” (MAX-DELBRÜCK-CENTRUM FÜR MOLEKULARE MEDIZIN IN DER …, priority 2018, dated 2025)
# Key:
# Ex1Q48-CyPet/-YPet = assay: FRASE assay: effect of added preformed fibrils/seeds on Ex1Q48-CyPet/-YPet polymerization; assay type: biochemical, human; settings: non-polyQ fibrillar aggregates produced in vitro; sensor 1:1 mixture, total conc. 1.2 μM
# Procedure: (B) Effects of small, preformed Ex1Q48 seeds (1250 kDa) on Ex1Q48-CyPet and -YPet (1:1 mixture, total conc. 1.2 μM) co-aggregation. Data are mean±SEM (n=5).
# (D) Effects of non-polyQ fibrils on Ex1Q48-CyPet and -YPet (1:1 mixture, total conc. 1.2 μM) co-aggregation. Data are mean±SD of triplicates.
# Spontaneous Ex1Q48 aggregation was initiated by addition of 14 U PreScission protease (GE Healthcare) per nmol purified GST-Ex1Q48 fusion protein (2 μM). The aggregation reaction was performed in 50 mM Tris-HCl pH 7.4, 150 mM NaCl, 1 mM EDTA and 1 mM DTT at 25° C. and constant agitation (450 rpm) for 24 h. […] K2Q48P6 protein for seeding experiments was prepared from GST-K2Q48P6 fusion protein using the same protocol. ΔN17Q48+6PRD protein for seeding experiments was prepared from GST-ΔN17Q48+6PRD fusion protein using the same protocol. ΔN17Q40+6PRD protein for seeding experiments was prepared from GST-ΔN17Q40+6PRD fusion protein using the same protocol. Synthetic human IAPP was aggregated as described previously (Gao et al., 2015). Lyophilized α-Syn was dissolved in PBS at 500 μM and centrifuged (4° C., 265.000×g) after a 5 min sonication step to remove aggregated material. The supernatant was incubated for 7 d at 37° C. under constant shaking in the presence of a single glass bead. Tau40 was aggregated for 6 d at 37° C. under constant shaking in 100 mM sodium acetate, pH 7.4, and 1 mM DTT in the presence of heparin. Synthetic human Δβ1-42 was dissolved in 100 mM NaOH and diluted to 200 μM in low salt buffer (10 mM K3PO4, pH 7.4, 10 mM NaCl). Aggregation was performed for 6 h at 37° C. under constant agitation.
# (§1) Purified GST-Ex1Q48-CyPet and GST-Ex1Q48-YPet were diluted in aggregation buffer at an equimolar ratio to a final concentration of 1.2 μM (0.6 μM each) with 14 U PSP per nmol sensor proteins if not stated otherwise. […] For quantification of seeding-competent HTT species in tissue samples, the sensor-protein mixture was supplemented with up to 10% (v/v) tissue homogenate. Fluorescence signals were measured every 20 min following a 5 s pulse of vertical shaking with a Tecan M200 fluorescence plate reader at 25° C. for up to 48 h. CyPet donor fluorescence was measured at excitation (Ex): 435 nm/emission (Em): 475 nm; YPet acceptor fluorescence at Ex: 500 nm/Em: 530 nm; the FRET channel (DA) was recorded at Ex: 435 nm/Em: 530 nm. Raw signals were processed by subtracting the background fluorescence of unlabeled Ex1Q48 in all channels. […] In brief, the FRET efficiency E (in %) was calculated as follows: E=(DA-cDxDD-cAxAA)/AA with DD=donor channel signal and AA=acceptor channel signal.
# Seeding effects (Δt50 [h]) were quantified by subtracting the t50 values (time at half-maximal FRET efficiency) of the respective sample from the negative control. […]
# HTTex1Q48 = HTTex1Q48 (Homo sapiens, UniProt P42858, INS38QQQQQQQQQQQQQQQQQQQQQQQQQQQ/P65L/V80A); settings: previously shown (Wagner et al., 2018); cited from earlier work
# Chain of HTTex1Q48 (P42858 with tags, fused parts or gaps with the stated changes): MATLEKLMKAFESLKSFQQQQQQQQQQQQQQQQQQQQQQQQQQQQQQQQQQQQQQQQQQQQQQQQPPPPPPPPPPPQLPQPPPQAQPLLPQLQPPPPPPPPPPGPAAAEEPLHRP
# sensor proteins = assay: Sensor protein aggregation in the presence of compound but in the absence of HTTex1Q48 seeds; assay type: biochemical, human; settings: compound present, no HTTex1Q48 seeds; residual concentration
# Procedure: Purified GST-Ex1Q48-CyPet and GST-Ex1Q48-YPet were diluted in aggregation buffer at an equimolar ratio to a final concentration of 1.2 μM (0.6 μM each) with 14 U PSP per nmol sensor proteins if not stated otherwise. The solution was then mixed with preformed aggregates of Ex1Q48 (seeds) at varying concentrations with or without prior sonication and transferred to a black 384-well plate (with a final reaction volume of 30 μl per well and a sensor protein concentration of 1.2 μM). For quantification of seeding-competent HTT species in tissue samples, the sensor-protein mixture was supplemented with up to 10% (v/v) tissue homogenate. Fluorescence signals were measured every 20 min following a 5 s pulse of vertical shaking with a Tecan M200 fluorescence plate reader at 25° C. for up to 48 h. CyPet donor fluorescence was measured at excitation (Ex): 435 nm/emission (Em): 475 nm; YPet acceptor fluorescence at Ex: 500 nm/Em: 530 nm; the FRET channel (DA) was recorded at Ex: 435 nm/Em: 530 nm. Raw signals were processed by subtracting the background fluorescence of unlabeled Ex1Q48 in all channels. […] In brief, the FRET efficiency E (in %) was calculated as follows: E=(DA-cDxDD-cAxAA)/AA with DD=donor channel signal and AA=acceptor channel signal. […]
# HTTex1Q48 seeds = molecular target: T1, HTTex1Q48 seeds (Homo sapiens, UniProt P42858, INS38QQQQQQQQQQQQQQQQQQQQQQQQQQQ/P65L/V80A); assay: FRASE assay of HTTex1Q48 seeds pre-incubated with compound; assay type: biochemical; settings: preformed, sonicated HTTex1Q48 aggregates incubated with compound in 200-fold molar excess at 25° C. for 20 hours; compared to seeds incubated with DMSO
# T1 construct: GST (N, cleaved yes); made in house; host or cells: E. coli BL21-CodonPlus-RP
# T1 sequence (P42858 with tags, fused parts or gaps with the stated changes): as the sequence (P42858 with tags, fused parts or gaps with the stated changes) above
# Procedure: Httex1Q48 seeds were pre-incubated with 04 in 200-fold molar excess at 25° C. for 20 h and subsequently analyzed for their seeding activity using FRASE assays. (A) Aggregation profiles of sensor proteins in the presence or absence of O4 treated seeds and respective controls. Data are mean±SD of technical triplicates.
# as §1, with “signal. […]” for “signal.”
compound,measurement,setting,value
amyloid-β: synthetic human Aβ1-42 aggregated in vitro,influence on Ex1Q48-CyPet/-YPet polymerization,Ex1Q48-CyPet/-YPet,did not significantly influence
O=c1cc2oc3cc(O)c(-c4ccc(O)cc4O)cc3nc-2cc1-c1ccc(O)cc1O [O4],interference with the aggregation of HTTex1Q48,HTTex1Q48,interfere with the aggregation
same,effect on sensor protein aggregation,sensor proteins,no significant effect
same,"HTTex1Q48 seeding activity (HSA, Δt50) after pre-incubation of seeds",HTTex1Q48 seeds,strongly reduces
IAPP: synthetic human islet amyloid polypeptide aggregated in vitro (KCNTATCATQRLANFLVHSSNNFGAILSSTNVGSNTY),influence on Ex1Q48-CyPet/-YPet polymerization,Ex1Q48-CyPet/-YPet,did not significantly influence
tau: recombinant Tau40 protein aggregated in the presence of heparin,influence on Ex1Q48-CyPet/-YPet polymerization,Ex1Q48-CyPet/-YPet,did not significantly influence
α-synuclein,influence on Ex1Q48-CyPet/-YPet polymerization,Ex1Q48-CyPet/-YPet,did not significantly influence
